# Measurements: patent US20130059879A1, “Small Molecule Inhibitors of PFKFB3 and Glycolytic Flux and Their Methods of Use as Anti-Cancer Therapeutics” (UNIVERSITY OF LOUISVILLE RESEARCH FOUNDATION, INC., priority 2010, published 2013)
# Structures can show the parent of a compound that is named as a salt. Where two headings read alike, the source gives them in different places.
# Columns and labels:
# [1] = Microsomal stability in human liver microsomes; format: in vitro ADME
# Protocol: Microsomal stability in vitro in different biologic media (liver microsomes, S9 fraction, hepatocytes) and species is ascertained to evaluate the rate at which a compound undergoes metabolism in the experimental in vitro conditions. Results for some compounds of the invention after a 60 minutes incubation period in human liver microsomes are shown in the Table 6 below. […] Experimental conditions are briefly described here: the stability in human liver microsomes of several compounds was done over […] at 37° C. using pooled mixed gender human liver microsomes. These liver microsomes were prepared at 1.0 mg/ml of microsomal protein in a 100 mM potassium phosphate pH 7.4 buffer with 1 mM NADPH. The media was incubated at 37° C. with the compound in solution in DMSO. The concentration of the compound was followed by LC/MS-MS as a function of time. Samples were assayed at t=0, 15, 30, and 60 minutes. Testosterone was used as a positive control. The same experiment was performed with mouse, rat or dog liver microsomes instead of human liver microsomes.
# Jurkat = assay: Cancer cell proliferation, Alamar Blue assay, 72 hours; format: cell-based
# Protocol: (§1) The ability of the compounds described herein to kill or inhibit the proliferation of cancer cells was measured using either the MTT assay, or the Alamar Blue assay, or the Cell Titer Glow® assay using 48 or 72 hours exposure. […] The procedures are briefly described below. Cells of the desired tumor cell line were plated at 2×10^5 cells/ml in 96 well plates. Twice the indicated concentrations of the compounds of the invention were added to cells the following day in an equal volume of media. 72 hours later, cells were lysed and subjected to ATP determination using the CellTiter Glo-Luminescent Cell Viability Assay kit (Promega, Madison, Wis.). Experiments were done in triplicate. When using the MTT assay or the Alamar blue assay, the experimental conditions are essentially similar; at the end of the incubation period, 20 microliters of the MTT solution is added per well and the samples are incubated for an additional four hours, rinsed, and the absorbance at 570 nm measured. […] Table 2 lists the IC50 values for the compounds of the invention in several cell lines including Jurkat, Calu-6, NCI-H82, U937, HCT-116, and MDA-MB-231 cancer cell lines.
# MDA-MB-231 = assay: as above; format: cell-based; settings: Homo sapiens
# Protocol: as §1
# U937 = assay: as above; format: cell-based
# Protocol: as §1
# Calu-6 = assay: as above; format: cell-based
# Protocol: as §1
# NCI-H82 = assay: as above; format: cell-based
# Protocol: as §1
# HCT-116 = assay: as above; format: cell-based
# Protocol: as §1
# [2] = 60 min incubation, 1.0 mg/ml microsomal protein, 1 mM NADPH, 37° C.
# [3] = Homo sapiens, NCI-H82, read-out: IC50 NCl-H82
Compound,"IC50 (Jurkat; Homo sapiens, Jurkat)",IC50 (MDA-MB-231),"IC50 (U937; Homo sapiens, U-937)","IC50 (Calu-6; Homo sapiens, Calu-6)",IC50 (NCI-H82; [3]),"IC50 (HCT-116; Homo sapiens, HCT-116)",further results
"O=C(c1ccccc1)c1cc2c(ccc3cccnc32)[nH]1 [ACT-PFK-102, Phenyl-(7H-pyrrolo[2,3-h]quinolin-8-yl)-methanone]",> 100 µM,,> 100 µM,> 100 µM,> 100 µM,,
"O=C(c1cc[n+]([O-])cc1)c1cc2c(ccc3ccccc32)[nH]1 [ACT-PFK-106, (3H-benzo[e]indol-2-yl)-(1-oxy-pyridin-4-yl)-methanone]",21 µM,28 µM,3.15 µM,8.9 µM,15 µM,38.5 µM,
"COc1cccc(NC(=O)c2cc3c(ccc4ccccc43)[nH]2)c1 [ACT-PFK-127, 3H-Benzo[e]indole-2-carboxylic acid (3-methoxy-phenyl)-amide]",0.78 µM,,,1.02 µM,0.755 µM,,
"COc1ccc(C(=O)c2cc3c(ccc4ccccc43)[nH]2)cc1 [ACT-PFK-093, (3H-Benzo[e]indol-2-yl)-(4-methoxy-phenyl)-methanone]",,,,,,,"HLM, Mean metabolized (%) ([1]; 0 min): 0.0%; HLM, Mean metabolized (%) [1, 2]: 95%"
"COc1cccc(C(O)c2cc3c(ccc4ccccc43)[nH]2)c1 (centres unmarked) [ACT-PFK-124, (3H-Benzo[e]indol-2-yl)-(3-methoxy-phenyl)-methanol]",8.8 µM,,,10.3 µM,11.2 µM,,
"CN(C)c1ccc(C(=O)c2cc3c(ccc4ccccc43)[nH]2)cc1 [ACT-PFK-128, (3H-Benzo[e]indol-2-yl)-(4-dimethylamino-phenyl)-methanone]",> 100 µM,,,> 100 µM,> 100 µM,,
"O=C(c1ccncc1)c1cc2c(ccc3ccccc32)[nH]1 [ACT-PFK-095HCl, HCl salt of (3H-Benzo[e]indol-2-yl)-pyridin-4-yl-methanone]",,,,,,,IC50 (Jurkat): 0.44 µM; IC50 (U937): 0.02 µM; IC50 (Calu-6): 0.39 µM; IC50 (NCI-H82; read-out: IC50 NCl-H82): 0.305 µM; IC50 (HCT-116): 0.85 µM
"COC(=O)c1cc(C(=O)c2cc3c(ccc4ccccc43)[nH]2)ccc1OCc1ccccc1 [ACT-PFK-113, 5-(3H-Benzo[e]indole-2-carbonyl)-2-benzyloxy-benzoic acid methyl ester]",28 µM,> 100 µM,26.8 µM,28.5 µM,> 100 µM,> 100 µM,
"O=C(c1ccc(OCc2ccccc2)c(C(=O)O)c1)c1cc2c(ccc3ccccc32)[nH]1 [ACT-PFK-114, 5-(3H-Benzo[e]indole-2-carbonyl)-2-benzyloxy-benzoic acidmethanone]",> 100 µM,> 100 µM,> 100 µM,> 100 µM,> 100 µM,> 100 µM,
"O=C(c1cccc(CO)c1)c1cc2c(ccc3ccccc32)[nH]1 [ACT-PFK-120, (3H-Benzo[e]indol-2-yl)-(3-hydroxymethyl-phenyl)-methanone]",0.155 µM,,,0.055 µM,0.27 µM,,
"COC(=O)c1ccc(C(=O)c2cc3c(ccc4ccccc43)[nH]2)cc1 [ACT-PFK-110, 4-(3H-Benzo[e]indole-2-carbonyl)-benzoic acid methyl ester]",> 100 µM,> 100 µM,> 100 µM,59.5 µM,> 100 µM,> 100 µM,
"O=C(Nc1ccccc1)c1cc2c(ccc3ccccc32)[nH]1 [ACT-PFK-126, 3H-Benzo[e]indole-2-carboxylic acid phenylamide]",0.85 µM,,,1.1 µM,0.84 µM,,
"O=C(c1cccc(O)c1)c1cc2c(ccc3ccccc32)[nH]1 [ACT-PFK-103, (3H-Benzo[e]indol-2-yl)-(3-hydroxy-phenyl)-methanone]",0.11 µM,6.4 µM,,0.13 µM,0.405 µM,0.36 µM,

# More lines, main results first:
"IC50 (Jurkat; Homo sapiens, Jurkat)",IC50 (MDA-MB-231),"IC50 (U937; Homo sapiens, U-937)","IC50 (Calu-6; Homo sapiens, Calu-6)",IC50 (NCI-H82; [3]),"IC50 (HCT-116; Homo sapiens, HCT-116)",Compound,further results
6.9 µM,11.7 µM,2.85 µM,7.25 µM,10.1 µM,> 100 µM,"O=C(c1ccccc1)c1cc2c3c(ccc2[nH]1)CCCC3 [ACT-PFK-107, Phenyl-(6,7,8,9-tetrahydro-3H-benzo[e]indol-2-yl)-methanone]","HLM, Mean metabolized (%) ([1]; 0 min): 0.0%; HLM, Mean metabolized (%) [1, 2]: 100.0%"
0.235 µM,,,0.07 µM,0.32 µM,,"O=C(c1ccc(O)c(F)c1)c1cc2c(cc(F)c3ccccc32)[nH]1 [ACT-PFK-122, (5-Fluoro-3H-benzo[e]indol-2-yl)-(3-fluoro-4-hydroxy-phenyl)-methanone]",
> 100 µM,,> 100 µM,> 100 µM,> 100 µM,,"Cc1cc2[nH]c(C(=O)c3ccccc3)cc2c2ccccc12 [ACT-PFK-101, (5-Methyl-3H-benzo[e]indol-2-yl)-phenyl-methanone]",
0.115 µM,,,0.079 µM,0.335 µM,,"O=C(c1cc2c(cc(F)c3ccccc32)[nH]1)C1CCCCC1 [ACT-PFK-121, Cyclohexyl-(5-fluoro-3H-benzo[e]indol-2-yl)-methanone]",
0.41 µM,,0.076 µM,0.23 µM,0.68 µM,0.495 µM,"O=C(c1cc2c(ccc3ccccc32)[nH]1)c1ccccc1O [ACT-PFK-099, (3H-Benzo[e]indol-2-yl)-(2-hydroxy-phenyl)-methanone]",
3.3 µM,,,2.45 µM,3.45 µM,,"Nc1ccc(NC(=O)c2cc3c(ccc4ccccc43)[nH]2)cc1 [ACT-PFK-134, 3H-Benzo[e]indole-2-carboxylic acid (4-amino-phenyl)-amide]",
2.35 µM,,,40.9 µM,11.9 µM,,"CS(=O)(=O)Nc1ccc(C(=O)c2cc3c(ccc4ccccc43)[nH]2)cc1 [ACT-PFK-133, N-[4-(3H-Benzo[e]indole-2-carbonyl)-phenyl]-methanesulfonamide]",
0.115 µM,7.4 µM,0.07 µM,0.14 µM,0.395 µM,0.355 µM,"O=C(c1ccnc(Cl)c1)c1cc2c(ccc3ccccc32)[nH]1 [ACT-PFK-105, (3H-benzo[e]indol-2-yl)-(2-chloro-pyridin-4-yl)-methanone]","HLM, Mean metabolized (%) ([1]; 0 min): 0.0%; HLM, Mean metabolized (%) [1, 2]: 51.4%"
1.13 µM,,,1.65 µM,1.45 µM,,"COc1cc(C(=O)c2cc3c(cc(O)c4ccccc43)[nH]2)ccc1N [ACT-PFK-130, (4-Amino-3-methoxy-phenyl)-(5-hydroxy-3H-benzo[e]indol-2-yl)-methanone]",
22.7 µM,,,39.5 µM,20.3 µM,,"OC(c1ccncc1)c1cc2c(ccc3ccccc32)[nH]1 (centres unmarked) [ACT-PFK-125, (3H-Benzo[e]indol-2-yl)-pyridin-4-yl-methanol]",
0.118 µM,5.95 µM,,0.2 µM,0.31 µM,0.32 µM,"O=C(c1ccccc1)c1cc2c(cc(F)c3ccccc32)[nH]1 [ACT-PFK-104, (5-Fluoro-3H-benzo[e]indol-2-yl)-phenyl-methanone]","HLM, Mean metabolized (%) ([1]; 0 min): 0.0%; HLM, Mean metabolized (%) [1, 2]: 80%"
4.55 µM,0.62 µM,1.07 µM,2.18 µM,6.05 µM,8.2 µM,"COc1cc(C(=O)c2cc3c(ccc4ccccc43)[nH]2)ccn1 [ACT-PFK-115, (3H-Benzo[e]indol-2-yl)-(2-methoxy-pyridin-4-yl)-methanone]","HLM, Mean metabolized (%) ([1]; 0 min): 0.0%; HLM, Mean metabolized (%) [1, 2]: 99.6%"
> 100 µM,,,> 100 µM,> 100 µM,,"COc1cc(C(=O)c2cc3c(cc(OC)c4ccccc43)[nH]2)ccc1N [ACT-PFK-131, (4-Amino-3-methoxy-phenyl)-(5-methoxy-3H-benzo[e]indol-2-yl)-methanone]",
0.23 µM,,,0.355 µM,0.37 µM,,"COc1cc(C(=O)c2cc3c(ccc4ccccc43)[nH]2)ccc1N [ACT-PFK-129, (4-Amino-3-methoxy-phenyl)-(3H-benzo[e]indol-2-yl)-methanone]",
